This is an account of results in PMC8402609, “Guiding the Immune Response to a Conserved Epitope in MSP2, an Intrinsically Disordered Malaria Vaccine Candidate” (Vaccines, 2021).

Usually Kd stands for the equilibrium constant for the complex coming apart.

Experiment [1] deals with biotinylated 13-residue peptides (A-I) spanning the C-terminal region of MSP2. Nature of the experiment: Fine specificity of antisera by peptide array ELISA (peptides A-I). To be noted: individual sera of mice immunised with peptide-KLH conjugate or MSP2 mix, diluted 1:1000; indirect ELISA; peptides C-D span 9H4 epitope, E-G span 4D11 epitope. The experiment is classed as in vivo, mouse. The procedure:
Peptide was conjugated to maleimide-activated KLH (Sigma-Aldrich) following the manufacturer’s protocol. Briefly, 1 mg of each peptide was mixed with 1 mg KLH in the provided buffer for a 200-fold molar excess of peptide to carrier protein. The reaction mixture was degassed under nitrogen and mixed at room temperature (RT) for 2 h. Any unreacted peptide was removed by dialysis against PBS using a 10 kDa cut-off membrane. The extent of conjugation was determined using Ellman’s reagent. Peptide-KLH conjugate stock solution was stored at 4 °C until further use. Prior to immunisation, peptide-KLH conjugates were diluted to 1 mg/mL in PBS and formulated with Montanide ISA720 at an antigen:adjuvant ratio of 3:7 and a final concentration of 0.3 mg/mL. The 3D7 + FC27 MSP2 mix was formulated using 0.15 mg/mL of each allelic form. Female C57BL/6 mice (n = 6 per group) were inoculated subcutaneously with 100 µL containing 30 µg of antigen at weeks 0, 4 and 8, then euthanised at week 10. Sera were collected and stored at −80 °C.
To determine peptide-KLH binding to 4D11 and 9H4, Maxisorp 96-well microtitre plates (Nunc, Rochester, NY, USA) were coated overnight at 4 °C with 2 µg/mL peptide-KLH in PBS. The plates were blocked with 1% BSA in PBS for 1 h before adding 100 µL of 4D11 and 9H4 IgG in eleven half log10 serial dilutions starting from stock at 1 µg/mL. After 1 h incubation at 4 °C and washing, antigen-bound antibodies were detected with goat anti-mouse IgG (1:2000 dilution) and freshly prepared 2,2-azinobis(3-ethylbenzthiazolinesulfonic acid (ABTS) substrate (1 mm) in citric acid buffer, pH 4.2, containing […]. The absorbance was read at 405 nm using a microplate reader. For determination of peptide-specific antibody titres, peptide-BSA conjugate was coated on the plate at 2 µg/mL. Individual mouse sera were added at a starting dilution of 1000-fold with six half log10 serial dilutions. Endpoint titres were taken as the x-axis intercept of the dilution curve at an absorbance value of three standard deviations (s.d.) greater than OD405 for naïve mouse serum. The fine specificities of the antisera were determined by ELISA using an array of nine biotinylated 13-residue peptides (A-I), which overlap by 2 or 3 residues and spanned the C-terminal region of MSP2 [11, 13]. Maxisorp 96-well microtitre plates (Nunc) were coated overnight at 4 °C with 1 µg/mL streptavidin in PBS. The plates were blocked with 1% BSA in PBS for 2 h before adding 1:500 biotinylated peptides. Individual sera samples were diluted 1:1000 in blocking solution before addition to the peptide array. Antibody was detected with the same protocol as mentioned above.
To characterise the response against these dimeric peptides further, the specificity of the induced antibodies was determined by indirect ELISA using an array of nine biotinylated peptides that spanned the epitopes recognised by the 4D11 and 9H4 mAbs (peptides A-I) (Table 3). Peptides C and D spanned the 9H4 epitope, whilst peptides E to G spanned the 4D11 epitope. […] However, the response against MSP2 was largely dominated by a single mouse in the group.
A general note: In an ELISA, binding on a coated surface is turned into a signal by an enzyme label.

Experiment [2] deals with 9H4 IgG. Nature of the experiment: SPR competition binding assay, mAb 9H4. The arrangement: species or system mouse. To be noted: SPR competition assay (Biacore T200); 3D7 MSP2 immobilised on CM5 chip; eight three-fold dilutions of peptide from 10 µM with 50 nM 9H4 IgG; alanine scan of 16-residue MSP2_207–222; read-out: Kd against 9H4 IgG. The procedure: (§1) Affinities for peptide epitopes and dimer peptides to 4D11 and 9H4 IgG were measured by surface plasmon resonance (SPR) (Biacore T200, GE Healthcare, Parramatta, Australia) using a competition assay method developed previously. First, 3D7 MSP2 was immobilised on a CM5 chip. To determine binding, eight three-fold dilutions of peptide, from 10 µM stock were added with 50 nM 4D11/9H4 IgG to compete with the immobilised antigen. A standard curve was established by flowing eight two-fold dilutions of 4D11 or 9H4 IgG from a 100 nM stock solution.
In our previous work, the minimal epitope and key residues involved in 4D11 binding were defined as the 8-residue peptide 3D7-MSP2_215–222, with Lys216, Glu217 and Asn218 crucial for binding. To characterise the epitope of 9H4 and compare it with that of 4D11, the same alanine-scan peptides were used to probe 9H4 binding (Figure 1A,B). Affinities for 9H4 binding were measured by SPR, using a competition binding assay described previously.

Experiment [3] concerns the target 4D11 IgG. Briefly: SPR competition binding assay, mAb 4D11. The arrangement: species or system mouse. To be noted: read-out: Kd against 4D11 IgG. The procedure:
as §1
Following the MD simulations, each peptide was synthesised by standard Fmoc synthesis. Orthogonal protection of cysteines was used to ensure that the desired disulfide bond was formed, leaving a single free cysteine for conjugation to an appropriate carrier for immunisation. […] Consequently, disulfide bond formation and cyclisation coupling were performed in solution. To determine if the additions incorporated into the dimer sequence hindered binding to 4D11, SPR was used to measure their binding affinity to the mAb (Table 2). […] For immunisations, the commonly used carrier protein, keyhole limpet hemocyanin (KLH) was chosen. As conjugation to KLH required a free thiol, an additional cysteine residue was included in all of the peptides (Figure 2).

Experiment [4] has as its system 3D7 merozoites. Briefly: Merozoite ELISA with pooled mouse sera, 3D7 merozoites. To be noted: pooled sera of immunised mice, two-fold dilutions from 1:500; merozoites 1 × 10^7/well; OD 450 nm; rank order in words. The experiment is classed as in vivo, P. falciparum. The procedure: The reactivity of mouse polyclonal antibodies with merozoites was determined by ELISA using merozoites from both the 3D7 and FC27 (D10 clone) strains of P. falciparum. The parasites were cultured in human erythrocytes at a haematocrit of 3% in RPMI media supplemented with […]. Viable merozoites were isolated as described previously. Highly synchronised late-stage schizonts were magnet-purified via a MACS magnet separation column (Miltenyi Biotec, Macquarie Park, Australia) and treated with E64 protease inhibitor (ThermoFisher Scientific, Scoresby, Australia) until mature merozoites were formed. Merozoites were released forcing them through a 1.2 µm filter.
Purified whole merozoites were resuspended in PBS supplemented with a cocktail of protease inhibitors (Roche, Castle Hill, Australia). Isolated merozoites were used to coat Nunc Maxisorp™ plates at 1 × 10^7/well and incubated overnight at 4 °C. The plates were then blocked with 1% casein in PBS at 37 °C for 2 h (or overnight at 4 °C). Pooled sera samples were added to wells at two-fold serial dilution in duplicate with a starting dilution of 1:500 and incubated at RT for 1 h. The plates were further incubated with HRP-conjugated goat anti-mouse IgG antibody diluted at 1:1000 in 0.1% casein in PBS at RT for 1 h. The plates were washed six times with PBS between each incubation step. Finally, 3,3′,5,5′-tetramethylbenzidine (TMB) substrate (Thermo Fisher Scientific, Scoresby, Australia) was added to the wells for the development of colour for 15 min and the reaction was stopped with 1 M sulfuric acid. The OD was measured at 450 nm.
The ability to induce an immune response that can recognise parasite MSP2 is essential in the design of an MSP2-based peptide vaccine. We isolated merozoites from both 3D7 and FC27 (D10 clone) strains of P. falciparum, coated them on ELISA plates and probed them with sera from the immunised mice (Figure 6). mAb 4D11 and the MSP2 mix pre-bleed were also included as positive and negative controls, respectively.

Setting [5] is: SPR competition assay (Biacore T200), 3D7 MSP2 immobilised on CM5 chip, eight three-fold dilutions of peptide from 10 µM with 50 nM 4D11 IgG, alanine scan of 16-residue MSP2_207–222.
The mark [6] stands for this setting: SPR competition binding assay, peptides for KLH conjugation (Table 2), 3D7 MSP2 on CM5 chip, 50 nM 4D11 IgG.

SMILES strings stand for the structures. Read-outs that look alike come from different tables or passages of the source. Where a SMILES comes first, the peptide text is derived from it. Bridges are numbered along the chain shown (N, C = ends).

As for `CC(=O)N[C@@H](CO)C(=O)N[C@@H](CCC(N)=O)C(=O)N[C@@H](C)C(=O)N[C@@H](CCC(=O)O)C(=O)N[C@H]1CSSC[C@@H](C(=O)NCC(=O)N[C@@H](C)C(=O)N[C@@H](C)C(N)=O)NC(=O)[C@H](CC(N)=O)NC(=O)[C@H](CCC(=O)O)NC(=O)[C@H](CCCCN)NC(=O)[C@H](CC(N)=O)NC(=O)CNC(=O)[C@H](CC(=O)O)NC(=O)[C@H]([C@@H](C)O)NC1=O` [Peptide K209A] (Ac-SQAECTDGNKENCGAA-NH2; disulfide 5-13), the “specificity of the induced antibodies (peptide array A-I)” value (“specificity of the induced antibodies” for short) in experiment [1] is “shifted antibody recognition towards the 4D11-specific epitope represented by peptides E and F”. In addition, the Kd came out at 7300 nM in experiment [2], 300 nM in experiment [3] (setting [5]) and 200 nM in experiment [3] (setting [6]). The “reactivity of pooled sera with 3D7 merozoites” value (“reactivity of pooled sera” for short) in experiment [4] was “followed by K209A, A1, C1 and L1”.

Take `C[C@@H]1NC(=O)CNC(=O)[C@@H]2CSSC[C@H](NC(=O)[C@H](CC(N)=O)NC(=O)[C@H](CCC(=O)O)NC(=O)[C@H](CCCCN)NC(=O)[C@H](CC(N)=O)NC(=O)CNC(=O)[C@H](C)NC1=O)C(=O)NCC(=O)N[C@@H](C)C(=O)N[C@@H](C)C(=O)N[C@@H](CS)C(=O)N[C@@H](CC(N)=O)C(=O)N[C@@H](CCCCN)C(=O)N[C@@H](CCC(=O)O)C(=O)N[C@@H](CC(N)=O)C(=O)N2` [Peptide C1] (cyclo(NKENCGAAGNKENCGAAC); disulfide 5-14): the “specificity of the induced antibodies” value in experiment [1] is “almost exclusively directed to the 4D11 epitope”. In experiment [3] (setting [6]), the Kd was 440 nM. Further, the “reactivity of pooled sera” value in experiment [4] was “followed by K209A, A1, C1 and L1”.

On to `CC(=O)N[C@@H](CO)C(=O)N[C@@H](CCC(N)=O)C(=O)N[C@@H](CCCCN)C(=O)N[C@@H](CCC(=O)O)C(=O)N[C@H]1CSSC[C@@H](C(=O)NCC(=O)N[C@@H](C)C(=O)N[C@@H](C)C(=O)N[C@@H](CS)C(N)=O)NC(=O)[C@H](CC(N)=O)NC(=O)[C@H](CCC(=O)O)NC(=O)[C@H](CCCCN)NC(=O)[C@H](CC(N)=O)NC(=O)CNC(=O)[C@H](CC(=O)O)NC(=O)[C@H]([C@@H](C)O)NC1=O` [Peptide A1] (Ac-SQKECTDGNKENCGAAC-NH2; disulfide 5-13), for which the “specificity of the induced antibodies” value in experiment [1] is “primarily against peptides C and D”. In addition, the Kd in experiment [3] (setting [6]) is 200 nM. For the same compound, the “reactivity of pooled sera” value in experiment [4] was “followed by K209A, A1, C1 and L1”.

Turning to `CC(=O)N[C@@H](CC(N)=O)C(=O)N[C@@H](CCCCN)C(=O)N[C@@H](CCC(=O)O)C(=O)N[C@@H](CC(N)=O)C(=O)N[C@H]1CSSC[C@@H](C(=O)NCC(=O)N[C@@H](C)C(=O)N[C@@H](C)C(=O)N[C@@H](CS)C(N)=O)NC(=O)[C@H](CC(N)=O)NC(=O)[C@H](CCC(=O)O)NC(=O)[C@H](CCCCN)NC(=O)[C@H](CC(N)=O)NC(=O)CNC(=O)[C@H](C)NC(=O)[C@H](C)NC(=O)CNC1=O` [Peptide L1] (Ac-NKENCGAAGNKENCGAAC-NH2; disulfide 5-14), the “specificity of the induced antibodies” value in experiment [1] is on record as “almost exclusively directed to the 4D11 epitope”. Moreover, the Kd in experiment [3] (setting [6]) was found to be 470 nM. In addition, in experiment [4], the “reactivity of pooled sera” value was “followed by K209A, A1, C1 and L1”.

For `CC(=O)N[C@@H](CO)C(=O)N[C@@H](CCC(N)=O)C(=O)N[C@@H](CCCCN)C(=O)N[C@@H](CCC(=O)O)C(=O)N[C@H]1CSSC[C@@H](C(=O)NCC(=O)N[C@@H](C)C(=O)N[C@@H](C)C(N)=O)NC(=O)[C@H](CC(N)=O)NC(=O)[C@H](CCC(=O)O)NC(=O)[C@H](CCCCN)NC(=O)[C@H](CC(N)=O)NC(=O)[C@H](C)NC(=O)[C@H](CC(=O)O)NC(=O)[C@H]([C@@H](C)O)NC1=O` [Peptide G214A] (Ac-SQKECTDANKENCGAA-NH2; disulfide 5-13), the values for the Kd in experiment [2] and in experiment [3] (setting [5]) were 70 nM and 400 nM, respectively.
